# Bridge positions count the residues as written; N and C are the ends. Square brackets hold non-standard residues; d marks the D form. Peptide text beside a SMILES is read from it. ξ: configuration not given here. S5 = C=CCCC[C@](C)(N)C(=O)O; ξIle = CC[C@H](C)C(N)C(=O)O
# Assays:
# [1] = Inhibition of EED/EZH2 (unknown origin) interaction by fluorescence polarization assay; parameters: species or system Homo sapiens
# [2] = Inhibition of human N- terminal 6 his sumo-tagged EED (81 to 441 residues)/EZH2(39 to 63 residues) (unknown origin) interaction expressed in Escherichia coli BL21(DE3) incubated for 2 hrs by fluorescence polarization based competitive assay
# [3] = molecular target: T1, Polycomb protein EED (Homo sapiens, UniProt O75530); test: Displacement of H3K27me3 from EED (unknown origin) by competitive binding assay
# Target sequence in this assay (O75530 whole entry): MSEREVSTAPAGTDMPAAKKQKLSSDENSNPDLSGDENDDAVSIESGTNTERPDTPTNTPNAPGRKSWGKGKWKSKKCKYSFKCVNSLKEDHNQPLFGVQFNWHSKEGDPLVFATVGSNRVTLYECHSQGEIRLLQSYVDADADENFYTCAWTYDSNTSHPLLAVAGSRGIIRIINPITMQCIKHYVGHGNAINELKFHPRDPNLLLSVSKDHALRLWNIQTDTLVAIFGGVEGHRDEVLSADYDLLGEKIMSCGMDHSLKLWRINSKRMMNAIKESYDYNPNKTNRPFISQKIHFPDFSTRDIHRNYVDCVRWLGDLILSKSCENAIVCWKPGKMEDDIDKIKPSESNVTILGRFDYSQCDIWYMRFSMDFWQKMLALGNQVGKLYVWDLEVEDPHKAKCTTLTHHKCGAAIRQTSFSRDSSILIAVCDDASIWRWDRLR
# [4] = system: KARPAS-422; test: Antitumor activity against human KARPAS-422 cells xenografted in mouse assessed as tumor growth inhibition at 100 mg/kg, po administered twice daily for 36 days relative to control; format: functional; conditions: KARPAS-422, 864 h, time 36 day, read-out: TGI
# [5] = system: Pfeiffer; test: Antitumor activity against human Pfeiffer cells xenografted in mouse assessed as tumor growth inhibition at 100 mg/kg, po administered twice daily for 36 days relative to control; format: functional; conditions: 864 h, time 36 day, read-out: TGI
# [6] = Inhibition of PRC2 (unknown origin) using H3K27me0 as peptide substrate by LC-MS based analysis; parameters: species or system Homo sapiens
# [7] = molecular target: EZH2/SUZ12/EED complex (Homo sapiens, UniProt O75530+Q15022+Q15910); test: Binding affinity to PRC2 complex of EZH2-EED-SUZ12 (unknown origin) assessed as dissociation constant by isothermal titration calorimetry method; format: protein-complex assay
# [8] = system: KARPAS-422; test: Synergistic growth inhibition against human KARPAS-422 cells assessed as reduction in cell proliferation by measuring synergistic score at upto 10 uM measured after 6 days in presence of EI1; format: functional; conditions: time 6 day
# [9] = system: KARPAS-422; test: Synergistic growth inhibition against human KARPAS-422 cells assessed as reduction in H3K27me3 level by measuring synergistic score upto 10 uM measured after 4 days in presence of EI1; format: functional; conditions: time 4 day
# [10] = system: KARPAS-422; test: Antitumor activity against human KARPAS-422 cells xenografted in mouse at 40 mg/kg via oral gavage and mesured after 32 days by caliper method relative to control; format: functional; conditions: KARPAS-422, 768 h, time 32 day, read-out: TGI
# [11] = molecular target: EZH2/SUZ12/EED complex (Homo sapiens) (UniProt Q15910+O75530+Q15022)
# Description: Stabilization of PRC2 complex of EZH2-EED-SUZ12 (unknown origin) assessed as thermal stability by measuring increase in melting temperature by thermal shift assay
# [12] = molecular target: T1, Polycomb protein EED; test: Binding affinity to his tagged EED (1 to 441 residues) (unknown origin) incubated for 20 mins in presence of biotinylated H3K27me3 peptide (19 to 33 residues) by alphascreen competitive binding assay
# Target sequence in this assay (O75530 whole entry): as above
# [13] = Oral bioavailability in mouse; format: ADME, organism-based; conditions: in vivo
# [14] = molecular target: T1, Polycomb protein EED; test: Stabilization of EED (unknown origin) assessed as change in melting temperature by thermal shift assay; conditions: tested as the 2H-labelled form
# Target sequence in this assay (O75530 2-441 limits assumed): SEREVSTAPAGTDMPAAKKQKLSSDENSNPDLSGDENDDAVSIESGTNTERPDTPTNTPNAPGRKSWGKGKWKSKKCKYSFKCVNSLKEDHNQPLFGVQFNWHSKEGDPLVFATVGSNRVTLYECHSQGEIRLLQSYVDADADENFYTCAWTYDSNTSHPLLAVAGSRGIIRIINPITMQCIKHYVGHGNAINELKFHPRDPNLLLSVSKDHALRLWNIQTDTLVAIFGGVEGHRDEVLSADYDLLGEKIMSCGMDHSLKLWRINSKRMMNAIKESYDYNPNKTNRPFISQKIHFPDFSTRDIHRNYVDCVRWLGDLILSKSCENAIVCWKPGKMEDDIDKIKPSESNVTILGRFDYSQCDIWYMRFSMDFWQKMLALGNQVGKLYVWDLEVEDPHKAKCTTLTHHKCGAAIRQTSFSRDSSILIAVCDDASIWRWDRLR
# [15] = molecular target: T1, Polycomb protein EED; test: Binding affinity to C-terminal histidine tagged EED (unknown origin) expressed in Escherichia coli BL21(DE3) incubated for 15 mins by fluorescence polarization analysis
# Target sequence in this assay (O75530 whole entry): as the sequence (O75530 whole entry) above
# [16] = Synergistic cell viability against human MLL-AF9 cells by measuring combination index score at 0.3 to 3 uM measured after 7 days in presence of GSK126; format: functional; conditions: dose 0.3-3 µM; time 7 day
# [17] = system: KARPAS-422; test: Synergistic cell viability against human KARPAS-422 cells by measuring combination index score at 0.3 to 3 uM measured after 7 days in presence of GSK126; format: functional; conditions: dose 0.3-3 µM; time 7 day
# EZH2/SUZ12/EED complex (Homo sapiens), sequence (O75530 2-441 partner limits assumed): as the sequence (O75530 2-441 limits assumed) above
# EZH2/SUZ12/EED complex (Homo sapiens), sequence (Q15022 whole entry partner, the tested form may be a part): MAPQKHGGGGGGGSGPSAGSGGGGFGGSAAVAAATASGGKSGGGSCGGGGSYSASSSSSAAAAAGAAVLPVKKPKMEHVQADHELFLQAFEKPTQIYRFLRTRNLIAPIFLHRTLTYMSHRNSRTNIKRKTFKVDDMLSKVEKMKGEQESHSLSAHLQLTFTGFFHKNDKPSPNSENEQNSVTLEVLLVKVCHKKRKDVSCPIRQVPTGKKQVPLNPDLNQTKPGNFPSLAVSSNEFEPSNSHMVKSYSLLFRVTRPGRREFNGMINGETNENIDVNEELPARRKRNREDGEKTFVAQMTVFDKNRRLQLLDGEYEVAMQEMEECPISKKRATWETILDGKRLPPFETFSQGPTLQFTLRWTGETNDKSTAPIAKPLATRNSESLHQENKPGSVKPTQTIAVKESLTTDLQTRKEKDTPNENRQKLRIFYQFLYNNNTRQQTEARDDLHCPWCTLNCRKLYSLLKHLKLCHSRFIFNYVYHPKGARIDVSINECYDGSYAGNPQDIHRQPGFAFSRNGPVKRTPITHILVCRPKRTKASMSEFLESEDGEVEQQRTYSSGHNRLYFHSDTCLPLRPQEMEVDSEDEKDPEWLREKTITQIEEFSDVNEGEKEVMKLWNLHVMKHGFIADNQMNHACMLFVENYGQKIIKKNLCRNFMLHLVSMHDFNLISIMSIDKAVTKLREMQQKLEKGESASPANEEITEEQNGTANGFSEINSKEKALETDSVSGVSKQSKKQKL
# EZH2/SUZ12/EED complex (Homo sapiens), sequence (Q15910 whole entry, the tested form may be a part): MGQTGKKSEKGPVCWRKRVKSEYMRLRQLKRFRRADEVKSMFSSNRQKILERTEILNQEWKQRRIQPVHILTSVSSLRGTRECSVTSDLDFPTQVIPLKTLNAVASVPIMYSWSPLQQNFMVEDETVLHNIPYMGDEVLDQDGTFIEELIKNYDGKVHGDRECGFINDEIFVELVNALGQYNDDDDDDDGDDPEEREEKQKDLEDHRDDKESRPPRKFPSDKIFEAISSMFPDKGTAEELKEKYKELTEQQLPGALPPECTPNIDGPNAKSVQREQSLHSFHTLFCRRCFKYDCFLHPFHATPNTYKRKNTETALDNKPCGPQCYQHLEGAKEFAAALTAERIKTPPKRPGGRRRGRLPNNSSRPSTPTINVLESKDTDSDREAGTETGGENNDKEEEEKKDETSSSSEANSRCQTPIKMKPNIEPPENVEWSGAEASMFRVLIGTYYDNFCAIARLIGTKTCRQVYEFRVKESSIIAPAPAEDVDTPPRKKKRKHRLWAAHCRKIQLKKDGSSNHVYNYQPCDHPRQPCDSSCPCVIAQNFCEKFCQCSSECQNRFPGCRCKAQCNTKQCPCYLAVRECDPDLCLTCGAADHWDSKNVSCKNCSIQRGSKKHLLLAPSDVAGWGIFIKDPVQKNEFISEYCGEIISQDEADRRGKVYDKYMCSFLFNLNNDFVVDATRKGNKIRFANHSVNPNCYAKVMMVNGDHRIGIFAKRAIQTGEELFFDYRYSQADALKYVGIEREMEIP
# EZH2/SUZ12/EED complex, sequence (Q15910 whole entry): as the sequence (Q15910 whole entry, the tested form may be a part) above
# EZH2/SUZ12/EED complex, sequence (O75530 whole entry): as the sequence (O75530 whole entry) above
# EZH2/SUZ12/EED complex, sequence (Q15022 whole entry): as the sequence (Q15022 whole entry partner, the tested form may be a part) above
smiles,measurement,setting,value
CN1CCc2cccc3c2[C@H]1Cc1ccc(O)c(O)c1-3 [APOMORPHINE],IC50,[1],15.5 µM
COC(=O)C1=C(C)NC(C)=C(C(=O)OC)C1c1ccccc1[N+](=O)[O-] [NIFEDIPINE],IC50,[1],343 µM
Cc1ccc(C(C2=C(O)CC(C)(C)CC2=O)C2C(=O)CC(C)(C)CC2=O)s1 (stereo not given),IC50,[2],63.9 µM
[2H]C([2H])(Nc1ncc(-c2cccnc2C)c(=O)[nH]1)c1c(F)ccc2c1CCO2,IC50,[3],0.0045 µM
same,inhibition in vivo at 100 mg/kg,[4],85%
same,inhibition in vivo at 100 mg/kg,[5],96%
Cc1sc(NC(=O)CCCCC(=O)Nc2sc(C)c(C)c2C(N)=O)c(C(N)=O)c1C,IC50,[2],54.9 µM
CS(=O)(=O)c1ccc(-c2cnc(NCc3ccco3)n3cnnc23)cc1,IC50,[6],0.0234 µM
same,Kd,[7],0.082 µM
same,Activity,[8],1.67
same,Activity,[9],2.17
same,inhibition in vivo at 40 mg/kg,[10],100%
same,ΔTm,[11],> 8 °C
CCCCC1C(=O)N(c2ccccc2)N(c2ccc(O)cc2)C1=O (stereo not given) [OXYPHENBUTAZONE ANHYDROUS],IC50,[1],229 µM
Cc1cc(C)n(-c2cc(N3CCCc4ccccc43)ccc2[N+](=O)[O-])n1,IC50,[12],8.76 µM
CC[C@@H](C)n1cc(C)c2c(C(=O)NCc3c(C)cc(C)[nH]c3=O)cc(-c3ccc(N4CCNCC4)nc3)cc21,bioavailability,[13],0.2%
Cc1ncccc1-c1cnc(NCc2c(F)ccc3c2CCO3)[nH]c1=O,ΔTm,[14],6 °C
CC[C@H](C)C1NC(=O)[C@H](CCCCN)NC(=O)[C@@](C)(NC(=O)[C@H](CCCNC(=N)N)NC(=O)[C@H](CC(N)=O)NC(=O)[C@H](CO)NC(=O)[C@H](CO)NC(=O)[C@H](Cc2ccccc2)NC(C)=O)CCC/C=C/CCC[C@@](C)(C(=O)N[C@@H](CCCNC(=N)N)C(=O)N[C@H](C(=O)N[C@@H](CCC(N)=O)C(=O)N[C@H](C(=O)N[C@@H](CC(C)C)C(=O)N[C@@H](CC(N)=O)C(=O)N[C@@H](CCC(N)=O)C(=O)N[C@@H](CCC(=O)O)C(=O)N[C@@H](Cc2c[nH]c3ccccc23)C(=O)N[C@@H](CCCCN)C(=O)N[C@@H](CCC(N)=O)C(=O)N[C@@H](CCCNC(=N)N)C(=O)N[C@@H](CCCNC(=N)N)C(=O)N[C@H](C(=O)N[C@@H](CCC(N)=O)C(=O)N2CCC[C@H]2C(=O)N[C@H](C(=O)O)C(C)C)[C@@H](C)CC)[C@@H](C)CC)[C@@H](C)O)NC(=O)[C@H](CC(C)C)NC1=O (stereo not given in full) (Ac-FSSNR[S5]K[ξIle]L[S5]RTQILNQEWKQRRIQPV-OH; staple (E) 6-10),Kd,[15],0.00032 µM
same,Activity,[16],0.11
same,Activity,[17],0.74

# From ChEMBL document CHEMBL5236564, “An overview of the development of EED inhibitors to disable the PRC2 function” (RSC Med Chem, 2022)
